Experimental data as given in patent US20050203169A1, “Methods and compositions for treating diseases associated with excesses in ACE” (priority 2001, published 2005).
Where two headings read alike, the source gives them in different places. Blank lines part the entries; values can stand above or below the compound they belong to.

Assays:
[1] = tested on: patient with end-stage COPD; experiment: Outcome for patient with COPD on ramipril
serum potassium = tested on: serum potassium
Source text: As described above, fludrocortisone acetate ([…]) can be used to control serum K+ concentration. […] Diabetes Technology & Therapeutics. […] This can be easily achieved using […] (fludrocortisone acetate; see Table A).

[2] = tested on: patients with kidney failure; experiment: Clinical observations in patients with kidney failure; format: in vivo, human
circulating ACE = molecular target: T1, circulating ACE (Homo sapiens, UniProt P12821); conditions: cited from earlier work; for circulating ACE inhibited: 5 mg dose; for inhibition of enzyme activity: equal amount (5 mg)
T1 construct: from tissue; host or cells: circulation (blood, plasma or serum) of dosed subjects
T1 sequence (P12821 30-1232 limits assumed): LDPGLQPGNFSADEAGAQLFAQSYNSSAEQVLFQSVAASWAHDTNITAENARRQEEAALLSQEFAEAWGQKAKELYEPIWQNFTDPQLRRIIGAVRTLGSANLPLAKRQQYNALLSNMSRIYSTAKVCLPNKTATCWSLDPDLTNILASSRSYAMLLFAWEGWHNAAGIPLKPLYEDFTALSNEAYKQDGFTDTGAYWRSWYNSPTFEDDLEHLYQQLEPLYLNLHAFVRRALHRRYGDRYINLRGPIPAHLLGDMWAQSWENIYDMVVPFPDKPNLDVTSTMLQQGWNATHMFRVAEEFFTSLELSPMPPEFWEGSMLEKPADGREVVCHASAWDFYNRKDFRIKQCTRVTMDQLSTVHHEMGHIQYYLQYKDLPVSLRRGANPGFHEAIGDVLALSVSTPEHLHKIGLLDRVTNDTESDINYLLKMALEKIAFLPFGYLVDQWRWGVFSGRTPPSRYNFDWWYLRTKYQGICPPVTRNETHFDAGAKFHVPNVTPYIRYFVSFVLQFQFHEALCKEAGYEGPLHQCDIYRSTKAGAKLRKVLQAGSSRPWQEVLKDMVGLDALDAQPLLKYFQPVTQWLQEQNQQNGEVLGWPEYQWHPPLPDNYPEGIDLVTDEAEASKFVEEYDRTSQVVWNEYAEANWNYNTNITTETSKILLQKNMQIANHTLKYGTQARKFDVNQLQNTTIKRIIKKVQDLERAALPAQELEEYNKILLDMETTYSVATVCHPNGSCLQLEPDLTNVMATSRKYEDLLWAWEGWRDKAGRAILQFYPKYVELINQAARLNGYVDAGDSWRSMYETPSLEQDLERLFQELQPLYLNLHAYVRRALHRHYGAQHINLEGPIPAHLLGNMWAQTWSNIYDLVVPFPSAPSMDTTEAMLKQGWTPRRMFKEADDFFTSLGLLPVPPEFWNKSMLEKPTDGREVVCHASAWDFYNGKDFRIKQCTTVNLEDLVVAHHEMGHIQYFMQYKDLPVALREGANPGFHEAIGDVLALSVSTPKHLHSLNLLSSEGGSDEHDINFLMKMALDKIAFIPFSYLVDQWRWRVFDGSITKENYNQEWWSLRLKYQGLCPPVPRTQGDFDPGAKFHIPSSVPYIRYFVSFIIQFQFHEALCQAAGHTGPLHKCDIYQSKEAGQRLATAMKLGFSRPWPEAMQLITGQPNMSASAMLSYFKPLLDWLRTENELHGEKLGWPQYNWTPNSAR

[3] = molecular target: ACE (hydrophobic and hydrophilic active site) (Homo sapiens, UniProt P12821); conditions: cited from earlier work
ACE (hydrophobic and hydrophilic active site), sequence (P12821 30-1306): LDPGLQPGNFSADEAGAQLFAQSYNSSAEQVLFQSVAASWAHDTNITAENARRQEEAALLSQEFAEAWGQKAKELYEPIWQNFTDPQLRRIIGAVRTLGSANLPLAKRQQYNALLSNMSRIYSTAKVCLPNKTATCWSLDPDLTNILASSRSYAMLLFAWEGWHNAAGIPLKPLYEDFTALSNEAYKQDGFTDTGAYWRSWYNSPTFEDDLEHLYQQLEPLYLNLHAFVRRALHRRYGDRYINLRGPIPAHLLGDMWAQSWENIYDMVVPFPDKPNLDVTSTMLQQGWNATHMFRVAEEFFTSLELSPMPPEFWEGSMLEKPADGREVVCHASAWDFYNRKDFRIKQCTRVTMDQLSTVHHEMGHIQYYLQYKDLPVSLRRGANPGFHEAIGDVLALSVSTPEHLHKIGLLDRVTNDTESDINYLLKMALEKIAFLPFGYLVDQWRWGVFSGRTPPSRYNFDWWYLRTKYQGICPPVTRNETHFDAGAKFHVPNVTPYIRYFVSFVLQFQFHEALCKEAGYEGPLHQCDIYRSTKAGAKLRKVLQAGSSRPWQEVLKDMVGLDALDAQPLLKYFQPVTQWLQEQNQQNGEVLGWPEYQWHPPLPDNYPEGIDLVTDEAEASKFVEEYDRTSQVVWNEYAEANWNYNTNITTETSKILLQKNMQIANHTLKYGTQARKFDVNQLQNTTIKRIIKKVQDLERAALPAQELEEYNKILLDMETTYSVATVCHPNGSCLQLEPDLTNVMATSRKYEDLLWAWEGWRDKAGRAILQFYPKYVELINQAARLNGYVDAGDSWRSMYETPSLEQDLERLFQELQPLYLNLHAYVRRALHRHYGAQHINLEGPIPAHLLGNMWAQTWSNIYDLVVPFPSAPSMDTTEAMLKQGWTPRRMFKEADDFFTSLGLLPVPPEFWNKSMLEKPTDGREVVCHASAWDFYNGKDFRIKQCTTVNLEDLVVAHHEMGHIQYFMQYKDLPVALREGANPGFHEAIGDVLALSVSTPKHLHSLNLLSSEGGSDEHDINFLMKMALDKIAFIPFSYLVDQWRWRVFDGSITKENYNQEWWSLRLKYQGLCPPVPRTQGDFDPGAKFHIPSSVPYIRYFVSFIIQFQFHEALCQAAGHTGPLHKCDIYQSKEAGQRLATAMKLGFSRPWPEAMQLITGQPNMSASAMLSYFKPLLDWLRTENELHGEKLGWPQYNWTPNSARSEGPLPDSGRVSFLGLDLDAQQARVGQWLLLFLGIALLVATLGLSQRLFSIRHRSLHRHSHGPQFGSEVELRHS

[4] = tested on: patients on ACE inhibitors; conditions: cited from earlier work
[5] = tested on: blood pressure (index of maximum tissue ACE inhibition); conditions: rats, IV; cited from earlier work
[6] = tested on: patients with CRF (serum creatinine of at least 2 mg/dl); experiment: Time to Dialysis in patients with chronic renal failure; format: in vivo, human; conditions: conventional Rx <40 mg/d
Protocol: Outcomes data for patients with CRF due to hypertension, determined as Time to Dialysis, for patients with serum creatinine of at least 2 mg/dl at the first clinic visit:
The following are the expected differences in outcomes for patients with CRF due to NIDDM, determined as Time to Dialysis, for patients with serum creatinine of at least 2 mg/dl at the first clinic visit:
The following are the expected differences in outcomes for patients with ADPKD, determined as Time to Dialysis, for patients with serum creatinine of at least 2 mg/di at the fist clinic visit.

[7] = compared with ramipril; cited from earlier work
new cases of NIDDM = conditions: HOPE study (NEJM Jan. 21, 2000); cited from earlier work
hemodialysis patients = experiment: Ramipril in hemodialysis patients with ESRD due to hypertension; format: in vivo, human; conditions: 5 mg/day; two black hemodialysis patients

Compound: CCOC(=O)C1=C(COCCN)NC(C)=C(C(=O)OC)C1c1ccccc1Cl (stereo not drawn) [Amlodipine]
adverse event when added for BP control ([1]; COPD patient on ramipril): Developed CHF

Compound: CC(=O)OCC(=O)[C@@]1(O)CC[C@H]2[C@@H]3CCC4=CC(=O)CC[C@]4(C)[C@@]3(F)[C@@H](O)C[C@@]21C [Florinef, fludrocortisone acetate]
volume (fluid) retention (serum potassium; in vivo): # retention and congestive heart failure. Clinical observation indicates that volume retention occurs with daily FLORINEF but not with less-than-daily use, even up to five times a week.
serum potassium under adequate control (serum potassium; same daily dose despite higher dose of ACE inhibitor): below 5.3 mEq/l
control of serum potassium (serum potassium; up to 0.1 mg daily, chronic renal failure patients on high dose ACE inhibitor (e.g. 2 mg/kg/day quinapril)): could control serum potassium

Compound: CCCCc1nc(Cl)c(CO)n1Cc1ccc(-c2ccccc2-c2nn[nH]n2)cc1 [Losartan]
benefit when added to QUINAPRIL ([2]; 50 mg/day, patients with kidney failure): no added benefit
effect on serum potassium (serum potassium; combined with an ACE inhibitor): elevation of serum potassium

Compound: CCOC(=O)[C@H](CCc1ccccc1)N[C@@H](C)C(=O)N1CCC[C@H]1C(=O)O [enalapril]
circulating ACE inhibited (circulating ACE): 47%
inhibition of enzyme activity (circulating ACE): 50%
off-rate t(1/2) ([3]; hydrophilic site in the circulating form of the enzyme): ~4 h

Compound: CCOC(=O)[C@H](CCc1ccccc1)N[C@@H](C)C(=O)N1Cc2ccccc2C[C@H]1C(=O)O [quinapril]
serum creatinine on treatment ([2]; Patient, 20 mg/day given hs, decreased from 4.5): 1.7 mg/di
slowing down kidney failure ([2]; comparison of quinapril with ramipril): superior to RAMIPRIL
dose-toxicity curve ([4]; from 5 mg/day to 80 mg/day): flat
patients with elevation of mood ([4]; use by 12,000 patients): 20%
dose at which maximum blood pressure lowering occurred [5]: 3 mg/kg
Time to Dialysis ([6]; ADPKD, Caucasian men): 8.8 yr
Time to Dialysis ([6]; CRF due to NIDDM, African American men): 3.3 yr
Time to Dialysis ([6]; CRF due to NIDDM, Caucasian men): 2.7 yr
Time to Dialysis ([6]; CRF due to hypertension, African American men): 3.6 yr
Time to Dialysis ([6]; CRF due to hypertension, Caucasian men): 4.3 yr
off-rate t(1/2) ([3]; hydrophobic active site): ~24 h
octanol: water partition coefficient [7]: higher

serum glucose (hemodialysis patients): 40 mg/dL
serum potassium (hemodialysis patients): above 6 mEq/l
Compound: CCOC(=O)[C@H](CCc1ccccc1)N[C@@H](C)C(=O)N1[C@H](C(=O)O)C[C@@H]2CCC[C@@H]21 [ramipril]
new cases of NIDDM (new cases of NIDDM): prevention of new cases of NIDDM
circulating ACE inhibited (circulating ACE): 97%
inhibition of enzyme activity (circulating ACE): greater than 95%
FEV1 ([1]; 8/99, baseline 0.87 L): 0.83 L
BP ([1]; currently on 600 mg/d): 135/80
effect on pulmonary hypertension ([1]; emphysema (COPD)): appears to lower pulmonary hypertension
non-fluid weight gain ([1]; human, in vivo): 25 lb.
hospitalization ([1]; period of over five years): Hospitalized for CHF but not for COPD
BP ([1]; two weeks after start of 2.5 mg/d, first seen with BP 104/60): 180/110
off-rate t(1/2) ([3]; hydrophobic active site): ~24 h
